Test: Functional Dkk1-LRP5-TCF-Luciferase Assay in U2OS Cells (table columns: A=MAX FOLD Induction/DMSO CONTROL; B=fold induction @ 2.0 uM; C=fold induction @ 20.0 uM)
Assay type: cell-based, Human
Conditions: Homo sapiens, U2OS; for fold induction at 2 µM: 2.0 uM compound; for fold induction at 20 µM: 20.0 uM compound
Description: Biological Evaluation—Functional Dkk1-LRP5-TCF-Luciferase Assay in U2OS Cells
U2OS Human Bone derived cells (Osteosarcoma) are grown in McCoy's 5A Medium (Modified), with L-glutamine (GIBCO Cat No. 16600-082)+1% Pen-Strep+5% FBS) plated at 1×10^7 cells/T175 cm flask. The next day, the cells are co-transfected overnight with the following plasmids: (a) Test reporter (16×TCF-TK-FireFly-Luci), (b) Internal Control Reporter (TK-Renilla-Luci), (c) Wnt3a and (d) Dkk1. GIBCO's Lipofectamine 2000 and OptiMEM were used for the transfection. After a minimum of 4 hr of transfection at 37° C., the plasmid-transfected cells are trypsinized, counted, and suspended in freezing medium (95% FBS+5% DMSO). The reporter cells are frozen at 1×10^7/ml concentrations, aliquoted into 0.5 ml or 2.5 ml/tube and stored at −70° C.
The following day, test compounds are added under HTS setup by Plate Track into 384 well plates (white, TC treated, Falcon plate) such that the final concentration of the compounds in 20 μL/well cell will be 5 μg/ml (final concentration of DMSO=0.25% and final compound concentration=20 μM). Vials of frozen reporter cells are thawed by warming the vial in a 37° C. water bath for 60-120 seconds with some shaking until the cells formed a suspension. The thawed cells are transferred into a cold 50 ml (or larger) tube and mixed well by gentle pipetting. The appropriate amount of cold Phenol Red Free RPMI medium-1640 (GIBCO, Cat # 11835-030) with L-glutamine is added, both with ˜5% FBS (GIBCO-BRL, Cat. # 16000-044), so that 20 μl of the final cell suspension will contain ˜5,000 cells. The cell dilution is done such that the final concentration of FBS was ˜5%. Diluted cells (20 μl) are added into each well in a 384 well plate. The plate is incubated at 37° C. under 5% CO2 for ˜20 h. Bright-Glo substrate, 2.5 μl/well is added, and the Fire Fly Luciferase is measured using VLUX (60 second exposure) immediately after the substrate was added. Test compounds are dissolved in DMSO (100%) and added to specified wells. Raw luciferase signal data obtained as relative luminescence units (RLUs) for the test compounds are normalized to the signal of the mean of the sample reporter cell plate with DMSO.
Active compounds have TCF-luciferase ratios of 2.5 fold or greater over DMSO. All compounds show a signal increase of at least 10% compared to a signal with only DMSO added.
A=MAX FOLD Induction/DMSO CONTROL
B=TCF ACTIVITY/DMSO CONTROL Fold induction @ 2.0 uM C=TCF ACTIVITY/DMSO CONTROL Fold induction @ 20.0 uM

| Structure (SMILES) | fold induction at 2 µM | fold induction at 20 µM |
| --- | --- | --- |
| Cc1ccc2[nH]cc(-c3nc4c(-c5ccc6ccccc6c5)ccnc4n3C3CCNCC3)c2c1 [2-(5-methyl-1H-indol-3-yl)-7-(2-naphthyl)-3-piperidin-4-yl-3H-imidazo[4,5-b]pyridine] | 1.92 |  |
| Cc1ccc(-c2nc3cc(-c4ccc5ccccc5c4)cnc3n2C2CCNCC2)o1 [2-(5-methyl-2-furyl)-6-(2-naphthyl)-3-piperidin-4-yl-3H-imidazo[4,5-b]pyridine] | 1.23 |  |
| Cc1ccc(-c2nc3c(-c4ccc5ccccc5c4)ccnc3n2C2CCNCC2)o1 [2-(5-methyl-2-furyl)-7-(2-naphthyl)-3-piperidin-4-yl-3H-imidazo[4,5-b]pyridine] | 1.17 |  |
| FC(F)(F)c1ccc(C(F)(F)F)c(-c2nc3c(-c4ccc5ccccc5c4)ccnc3n2C2CCNCC2)c1 [2-[2,5-bis(trifluoromethyl)phenyl]-7-(2-naphthyl)-3-piperidin-4-yl-3H-imidazo[4,5-b]pyridine] | 1.45 |  |
| FC(F)(F)c1cccc(-c2nc3c(-c4ccc5ccccc5c4)ccnc3n2C2CCNCC2)c1Cl [2-[2-chloro-3-(trifluoromethyl)phenyl]-7-(2-naphthyl)-3-piperidin-4-yl-3H-imidazo[4,5-b]pyridine] | 1.21 |  |
| Fc1ccc(-c2nc3c(-c4ccc5ccccc5c4)ccnc3n2C2CCNCC2)c(C(F)(F)F)c1 [2-[4-fluoro-2-(trifluoromethyl)phenyl]-7-(2-naphthyl)-3-piperidin-4-yl-3H-imidazo[4,5-b]pyridine] | 1.11 |  |
| Oc1ccccc1-c1nc2c(-c3ccc4ccccc4c3)ccnc2n1C1CCNCC1 [2-[7-(2-naphthyl)-3-piperidin-4-yl-3H-imidazo[4,5-b]pyridin-2-yl]phenol] | 1.35 | 0.01 |
| c1ccc2cc(-c3ccnc4c3nc(-c3ccc5ccccc5n3)n4C3CCNCC3)ccc2c1 [2-[7-(2-naphthyl)-3-piperidin-4-yl-3H-imidazo[4,5-b]pyridin-2-yl]quinoline] | 0.01 | 1.01 |
| CCCCc1nc2cc(-c3ccc4ccccc4c3)cnc2n1C1CCNCC1 [2-butyl-6-(2-naphthyl)-3-piperidin-4-yl-3H-imidazo[4,5-b]pyridine] | 1.21 |  |
| CCCCc1nc2c(-c3ccc4ccccc4c3)ccnc2n1C1CCNCC1 [2-butyl-7-(2-naphthyl)-3-piperidin-4-yl-3H-imidazo[4,5-b]pyridine] | 1.19 |  |
| Clc1nc2ccccc2cc1-c1nc2c(-c3ccc4ccccc4c3)ccnc2n1C1CCNCC1 [2-chloro-3-[7-(2-naphthyl)-3-piperidin-4-yl-3H-imidazo[4,5-b]pyridin-2-yl]quinoline] | 1.6 |  |
| c1ccc2cc(-c3cnc4c(c3)nc(C3CCCCC3)n4C3CCNCC3)ccc2c1 [2-cyclohexyl-6-(2-naphthyl)-3-piperidin-4-yl-3H-imidazo[4,5-b]pyridine] | 1.24 | 0.01 |
| c1ccc2cc(-c3ccnc4c3nc(C3CCCCC3)n4C3CCNCC3)ccc2c1 [2-cyclohexyl-7-(2-naphthyl)-3-piperidin-4-yl-3H-imidazo[4,5-b]pyridine] | 1.88 |  |
| c1ccc2cc(-c3ccnc4c3nc(C3CCCC3)n4C3CCNCC3)ccc2c1 [2-cyclopentyl-7-(2-naphthyl)-3-piperidin-4-yl-3H-imidazo[4,5-b]pyridine] | 1.46 |  |
| CCc1nc2cc(-c3ccc4ccccc4c3)cnc2n1C1CCNCC1 [2-ethyl-6-(2-naphthyl)-3-piperidin-4-yl-3H-imidazo[4,5-b]pyridine] | 1.27 | 0.78 |
| CCc1nc2c(-c3ccc4ccccc4c3)ccnc2n1C1CCNCC1 [2-ethyl-7-(2-naphthyl)-3-piperidin-4-yl-3H-imidazo[4,5-b]pyridine] | 1.39 |  |
| CC(C)Cc1nc2cc(-c3ccc4ccccc4c3)cnc2n1C1CCNCC1 [2-isobutyl-6-(2-naphthyl)-3-piperidin-4-yl-3H-imidazo[4,5-b]pyridine] | 1.13 |  |

| Structure (SMILES) | fold induction at 2 µM | fold induction at 20 µM |
| --- | --- | --- |
| CC(C)Cc1nc2c(-c3ccc4ccccc4c3)ccnc2n1C1CCNCC1 [2-isobutyl-7-(2-naphthyl)-3-piperidin-4-yl-3H-imidazo[4,5-b]pyridine] | 1.05 |  |
| CC(C)c1nc2cc(-c3ccc4ccccc4c3)cnc2n1C1CCNCC1 [2-isopropyl-6-(2-naphthyl)-3-piperidin-4-yl-3H-imidazo[4,5-b]pyridine] | 1.44 |  |
| COc1cc(-c2nc3c(-c4ccc5ccccc5c4)ccnc3n2C2CCNCC2)ccc1O [2-methoxy-4-[7-(2-naphthyl)-3-piperidin-4-yl-3H-imidazo[4,5-b]pyridin-2-yl]phenol] | 1.63 | 0.01 |
| Cc1ccc(CCn2c(C)nc3c(-c4ccc5ccccc5c4)ccnc32)cc1 [2-methyl-3-[2-(4-methylphenyl)ethyl]-7-(2-naphthyl)-3H-imidazo[4,5-b]pyridine] | 0.82 | 1 |
| Cc1nc2cc(-c3ccc4ccccc4c3)cnc2n1C1CCNCC1 [2-methyl-6-(2-naphthyl)-3-piperidin-4-yl-3H-imidazo[4,5-b]pyridine] | 1.06 | 1.17 |
| Cc1nc2c(-c3ccc4ccccc4c3)ccnc2n1CC1CCNCC1 [2-methyl-7-(2-naphthyl)-3-(piperidin-4-ylmethyl)-3H-imidazo[4,5-b]pyridine] | 1.12 | 0.08 |
| Cc1nc2c(-c3ccc4ccccc4c3)ccnc2n1[C@@H]1CCNC1 [2-methyl-7-(2-naphthyl)-3-[(3R)-pyrrolidin-3-yl]-3H-imidazo[4,5-b]pyridine] | 1.44 | 0.55 |
| Cc1nc2c(-c3ccc4ccccc4c3)ccnc2n1[C@H]1CCNC1 [2-methyl-7-(2-naphthyl)-3-[(3S)-pyrrolidin-3-yl]-3H-imidazo[4,5-b]pyridine] | 1.57 | 0.4 |
| CC(=O)N1CCC(n2c(=O)n(C)c3c(-c4ccc5ccccc5c4)ccnc32)CC1 [3-(1-acetylpiperidin-4-yl)-1-methyl-7-(2-naphthyl)-1,3-dihydro-2H-imidazo[4,5-b]pyridin-2-one] | 1.09 | 0.51 |
| c1ccc(CN2CCC(n3cnc4c(-c5ccc6ccccc6c5)ccnc43)CC2)cc1 [3-(1-benzylpiperidin-4-yl)-7-(2-naphthyl)-3H-imidazo[4,5-b]pyridine] | 0.84 | 0.08 |
| O=C(N1CCOCC1)N1CCC(n2c(=O)[nH]c3c(-c4ccc5ccccc5c4)ccnc32)CC1 [3-[1-(morpholin-4-ylcarbonyl)piperidin-4-yl]-7-(2-naphthyl)-1,3-dihydro-2H-imidazo[4,5-b]pyridin-2-one] | 1.33 | 1.02 |
| O=C(N1CCOCC1)N1CCC(n2cnc3c(-c4ccc5ccccc5c4)ccnc32)CC1 [3-[1-(morpholin-4-ylcarbonyl)piperidin-4-yl]-7-(2-naphthyl)-3H-imidazo[4,5-b]pyridine] | 1.08 | 1.25 |
| Cc1ccc(CCn2cnc3c(-c4ccc5ccccc5c4)ccnc32)cc1 [3-[2-(4-methylphenyl)ethyl]-7-(2-naphthyl)-3H-imidazo[4,5-b]pyridine] | 0.76 | 0.98 |
| O=[N+]([O-])c1ccc(O)cc1-c1nc2c(-c3ccc4ccccc4c3)ccnc2n1C1CCNCC1 [3-[7-(2-naphthyl)-3-piperidin-4-yl-3H-imidazo[4,5-b]pyridin-2-yl]-4-nitrophenol] | 1.4 | 0.98 |
| Oc1cccc(-c2nc3c(-c4ccc5ccccc5c4)ccnc3n2C2CCNCC2)c1O [3-[7-(2-naphthyl)-3-piperidin-4-yl-3H-imidazo[4,5-b]pyridin-2-yl]benzene-1,2-diol] | 1.33 |  |
| Oc1cccc(-c2nc3c(-c4ccc5ccccc5c4)ccnc3n2C2CCNCC2)c1 [3-[7-(2-naphthyl)-3-piperidin-4-yl-3H-imidazo[4,5-b]pyridin-2-yl]phenol] | 1.58 |  |
| c1ccc2cc(-c3ccnc4c3nc(-c3cnc5ccccc5c3)n4C3CCNCC3)ccc2c1 [3-[7-(2-naphthyl)-3-piperidin-4-yl-3H-imidazo[4,5-b]pyridin-2-yl]quinoline] | 1.44 |  |
